≈ marks a conversion by molar mass, not a printed value. Where two headings read alike, the source gives them in different places.
Assays:
[1] = system: polymyxin-resistant mcr-1 positive Enterobacteriaceae; test: In vitro antibacterial effect on polymyxin-resistant mcr-1 positive Enterobacteriaceae, agar dilution MIC (Experiment 2); format: cell-based, Escherichia coli; details: for MIC50 / MIC90: Escherichia coli; for MIC50: read-out: MIC50 Value, polymyxin-resistant mcr-1 positive Escherichia coli, agar dilution; for MIC90: read-out: MIC90 Value, polymyxin-resistant mcr-1 positive Escherichia coli, agar dilution
Experimental: Tested samples: the compounds of the present invention, prepared according to the methods of the preparation examples;
Polymyxin E sulphate, Ampicillin, Cefotaxime, Gentamicin, Ciprofloxacin, Tetracycline, and Bactrim were all commercial products, the following experiments were carried out according to the content of an effective ingredient in each commercial product.
Tested strains: Escherichia coli carrying mcr-1 gene isolated from animals and Escherichia coli ATCC25922, a quality control strain, were provided by South China Agricultural University.
With reference to the agar dilution method in CLSI, the MIC value of the tested drugs to the polymyxin resistant mcr-1 positive Escherichia coli were determined.
Preparation of drug-containing agar plates: a drug solution with the highest concentration was prepared for each compound; the drug solution with the highest concentration was subjected to the double dilution; for each of dilution gradient, 1 mL (20×drug working solution) of the drug solution was added to 19 mL MH agar at 45-50° C.; immediately after addition, the agar and the drug solution were uniformly mixed to give a drug-containing agar plate with final concentrations of […], and the plate was solidified for later use; and in the meanwhile, a growth control group was arranged.
Inoculum preparation and culture: the strains stored at −80° C. were rejuvenated and formulated with broth so that the turbidity reached or exceeded 0.5 #McFarland unit; a 96-well plate was used as the inoculation tank, and the bacterial solution was diluted with sodium chloride injection so that the content of bacteria inoculated on the agar was 10^4 CFU/point. A multi-point inoculation instrument was used to inoculate the bacterial solution to the surface of the labeled drug-containing agar. After the water in the inoculation point was completely absorbed by the agar, the plate was placed upside down in a 37° C. constant-temperature incubator and incubated for 16-20 hours.

[2] = Pharmacokinetics (PK) determination in SD rats (Experiment 4); format: in vivo; details: plasma; for AUC(0-t) / AUC(0-inf): Sprague-Dawley (SD), rat, iv, 2 mg/kg; for AUC(0-inf): read-out: AUCINF_obs
Experimental: The compound of the present invention, self-prepared and dissolved in a suitable solvent.
Instrument and equipment: API4000 LC-MS/MS
Chromatographic column: Waters XBridge C18(2.1×50 mm, […])
Rat blood collection: Animals were fixed. The animal's tail was heated with a water bathtub 10 minutes before each time point. About 200 μL of the blood was collected through the caudal vein. After the blood collection, the blood was placed in an anticoagulation tube containing heparin sodium. The blood samples were centrifuged at 8000 rpm for 6 minutes at 4° C. to obtain plasma samples. The plasma must be prepared within 30 minutes after the blood collection. The plasma was stored in a refrigerator at −80° C. before the test.
(1) Test samples were removed from the refrigerator (−80° C.), naturally thawed at room temperature, and then vortexed for 5 minutes;
(2) 20 μL sample was precisely pipetted to a 1.5 mL centrifuge tube;
(3) 200 μL of the internal standard solution was added;
(4) The mixture was vortexed for 5 minutes and centrifuged for 5 minutes (12000 revolutions per minute);
(5) 100 μL of the supernate was precisely pipetted, 100 μL of water was added, the mixture was vortexed for 5 minutes, and the sample was sent to LC-MS/MS for analysis.
The results of the concentrations of the test samples (plasma samples) were output with Analyst 1.6.1 of AB Corporation. The meaning value, the standard deviation, the coefficient of variation, and other parameters (not necessary to calculate the parameter that can be directly output from Analyst 1.6.1) were calculated with Microsoft Excel, and the PK parameter is calculated with Pharsight Phoenix 6.1 software.

[3] = system: Escherichia coli; test: In vitro antibacterial activity, agar dilution MIC (Experiment 1); format: cell-based; details: agar dilution; for MIC50: read-out: MIC50; for MIC90: read-out: MIC90
Experimental: (§1) Tested strains: all the clinically separated strains below were purchased from public facilities.
(§2) Escherichia coli ATCC25922, Pseudomonas aeruginosa ATCC27853, Klebsiella pneumoniae ATCC700603, and the like.
(§3) Tested Samples: Imipenem, Ceftazidime: Commercial Products, the Following Experiments were Carried Out According to the Content of an Effective Ingredient in Each Commercial Product;
(§4) The compounds of the present invention, their chemical names, and preparation methods are shown in the preparation example of each compound.
(§5) Experiment method: Agar dilution method, refer to National Committee for Clinical Laboratory Standards. 2006. Methods for Dilution Antimicrobial Susceptibility Tests for Bacteria That Grow Aerobically; Approved Standard—Seventh Edition M7-A7, Vol 26, No. 2, 2006, to determine the MIC of the compound. MIC represents the minimum inhibitory concentration.

[4] = system: Pseudomonas aeruginosa; test: as above; format: cell-based
Experimental: as §1, §2, §3, §4, §5

[5] = system: Klebsiella pneumoniae; test: as above; format: cell-based; details: agar dilution; for MIC50: read-out: MIC50; for MIC90: read-out: MIC90
Experimental: as §1, §2, §3, §4, §5

[6] = agar dilution (Table 3), read-out: MIC90
[7] = agar dilution (Table 3), read-out: MIC50

| AUC(0-t) [2] | AUC(0-inf) [2] | MIC90 [4, 6] | MIC50 [4, 7] | Compound | MIC50 [1] | MIC90 [1] | Cl_obs ([2]; IV 2 mg/kg) | Vz_obs ([2]; IV 2 mg/kg) | t1/2z ([2]; IV 2 mg/kg) | λ_z ([2]; IV 2 mg/kg) | also measured |
| --- | --- | --- | --- | --- | --- | --- | --- | --- | --- | --- | --- |
| – | – | – | – | CC1(C)S[C@@H]2[C@H](NC(=O)[C@H](N)c3ccccc3)C(=O)N2[C@H]1C(=O)O [Ampicillin] | > 128 µg/mL | > 128 µg/mL | – | – | – | – | – |
| – | – | – | – | CO/N=C(\C(=O)N[C@@H]1C(=O)N2C(C(=O)O)=C(COC(C)=O)CS[C@H]12)c1csc(N)n1 [Cefotaxime] | 2 µg/mL (≈ 4.39 µM) | 128 µg/mL (≈ 281 µM) | – | – | – | – | – |
| – | – | – | – | O=C(O)c1cn(C2CC2)c2cc(N3CCNCC3)c(F)cc2c1=O [Ciprofloxacin] | 4 µg/mL (≈ 12.1 µM) | 32 µg/mL (≈ 96.6 µM) | – | – | – | – | – |
| – | – | 8 µg/mL (≈ 19 µM) | 1 µg/mL (≈ 2.37 µM) | C[C@@H](O)[C@H](NC(=O)c1ccc(C#CC#Cc2ccc(CNC3CC3)o2)cc1)C(=O)NO [Compound 11, 4-((5-((cyclopropylamino)methyl)furan-2-yl)buta-1,3-diynyl)-N-((2S,3R)-3-hydroxy-1-(hydroxamino)-1-oxobutan-2-yl)benzamide] | – | – | – | – | – | – | MIC50 [3]: 0.125 µg/mL (≈ 0.297 µM); MIC90 [3]: 0.25 µg/mL (≈ 0.593 µM); MIC50 [5]: 0.5 µg/mL (≈ 1.19 µM); MIC90 [5]: 2 µg/mL (≈ 4.75 µM) |
| 1330 ± 108 ng·h/mL | 1350 ± 222 ng·h/mL | 2 µg/mL (≈ 5.06 µM) | 0.5 µg/mL (≈ 1.26 µM) | CNCc1ccc(C#CC#Cc2ccc(C(=O)N[C@H](C(=O)NO)[C@@H](C)O)cc2)o1 [Compound 15, N-((2S,3R)-3-hydroxy-1-(hydroxyamino)-1-oxobutan-2-yl)-4-((5-((methylamino)methyl)furan-2-yl)buta-1,3-diynyl)benzamide] | – | – | 25.2 ± 4.5 mL/min/kg | 1.57 ± 0.28 L/kg | 44.4 ± 13.2 min | 0.99 ± 0.29 h⁻¹ | – |
| 2780 ± 130 ng·h/mL | 2790 ± 136 ng·h/mL | 2 µg/mL (≈ 5.05 µM) | 0.5 µg/mL (≈ 1.26 µM) | Cc1cc(C#CC#Cc2ccc(C(=O)N[C@H](C(=O)NO)[C@@H](C)O)cc2)oc1CO [Compound 16, N-((2S,3R)-3-hydroxy-1-(hydroxyamino)-1-oxobutan-2-yl)-4-((5-(hydroxymethyl)-4-methylfuran-2-yl)buta-1,3-diynyl)benzamide] | – | – | 12 ± 0.67 mL/min/kg | 0.47 ± 0.16 L/kg | 27 ± 8.4 min | 1.67 ± 0.58 h⁻¹ | – |
| – | – | 4 µg/mL (≈ 8.52 µM) | 1 µg/mL (≈ 2.13 µM) | C[C@@H](O)[C@H](NC(=O)c1ccc(C#CC#Cc2ccc(CNCCOCCO)o2)cc1)C(=O)NO [Compound 18, N-((2S,3R)-3-hydroxy-1-(hydroxyamino)-1-oxobutan-2-yl)-4-((5-((2-(2-hydroxyethoxy)ethylamino)methyl)furan-2-yl)buta-1,3-diynyl)benzamide] | – | – | – | – | – | – | MIC50 [5]: 2 µg/mL (≈ 4.26 µM); MIC90 [5]: 2 µg/mL (≈ 4.26 µM) |
| – | – | – | – | C[C@@H](O)[C@H](NC(=O)c1ccc(C#CC#Cc2ccco2)cc1)C(=O)NO [Compound 20] | – | – | 107 ± 16 mL/min/kg | 3.77 ± 0.53 L/kg | 24.6 ± 0.6 min | 1.70 ± 0.03 h⁻¹ | AUCINF_obs ([2]; IV 2 mg/kg): 791 ± 117 ng·h/mL; AUClast ([2]; IV 2 mg/kg): 778 ± 116 ng·h/mL; MIC50 ([4]; agar dilution (Table 3)): 0.25 µg/mL (≈ 0.71 µM); MIC90 ([4]; agar dilution (Table 3)): 1 µg/mL (≈ 2.84 µM) |

| Compound | AUC(0-t) [2] | AUC(0-inf) [2] | MIC90 [4, 6] | MIC50 [4, 7] | MIC50 [1] | MIC90 [1] | Cl_obs ([2]; IV 2 mg/kg) | Vz_obs ([2]; IV 2 mg/kg) | t1/2z ([2]; IV 2 mg/kg) | λ_z ([2]; IV 2 mg/kg) | also measured |
| --- | --- | --- | --- | --- | --- | --- | --- | --- | --- | --- | --- |
| CNC(=O)C(C(=O)NO)N(C)C(=O)c1ccc(C#CC#Cc2ccc(CO)o2)cc1 (stereo not shown) [Compound 5, N-methyl-N-(3-methylamino-1-(hydroxyamino)-1,3-dioxopropan-2-yl)-4-((5-(hydroxymethyl)furan-2-yl)buta-1,3-diynyl)benzamide] | 8110 ± 1050 ng·h/mL | 8150 ± 1040 ng·h/mL | 1 µg/mL (≈ 2.44 µM) | – | – | 0.5 µg/mL (≈ 1.22 µM) | 10.3 ± 1.3 mL/min/kg | 0.63 ± 0.02 L/kg | 42.6 ± 6.6 min | 0.99 ± 0.15 h⁻¹ | MIC50 [3]: 2 µg/mL (≈ 4.89 µM); MIC90 [3]: 4 µg/mL (≈ 9.77 µM); MIC50 [4]: 0.125 µg/mL (≈ 0.305 µM); MIC90 Value ([1]; polymyxin-resistant mcr-1 positive Escherichia coli, agar dilution): 1 µg/mL (≈ 2.44 µM) |
